# System: carrageenan-induced hind paw edema
# Test: carrageenan-induced hind paw edema (anti-inflammatory effect in vivo)
# Design: species or system Wistar rats
# Settings: for time up to which the anti-inflammatory effect increased: after oral administration, diclofenac 4 mg/kg, Zn(II) complex 10 mg/kg, measured at 1-6 hours; for percent inhibition of inflammation (paw edema) vs control group: male Wistar rats, half an hour before carrageenan; for anti-inflammatory effect in vivo (in words): Wistar rats, 10 mg/kg
# Procedure: The crystalline zinc complex was evaluated for anti-inflammatory effects in vivo in Wistar rats, compared to the known NSAID diclofenac as a standard treatment.
# Eighteen male Wistar rats (weighing from 200-250 g) were obtained from the “Animal Care and Use Center of College of Pharmacy at King Saud University, Riyadh, Saudi Arabia”. Institutional guidelines were followed for these studies. All rats were provided standard laboratory conditions of “temperature and relative humidity. The rats were kept in plastic cages and given free access to standard laboratory pellet diet and water ad libitum.
# The anti-inflammatory studies were performed by the standard carrageenan-induced hind paw edema method of inducing acute swelling, known in the industry and widely reported in the literature. The rats were randomly divided into 3 groups of 6 rats. Group I rats were given carrageenan only, and served as control group. Group II and III rats were given standard diclofenac and the studied Zn(II) complex, respectively.
# The standard diclofenac (4 mg/kg) and the Zn(II) complex (10 mg/kg) were administered orally half an hour before sub plantar injection of carrageenan in the right paw. Paw edema was induced by injecting 0.1 ml of a 1% w/v suspension of carrageenan in purified water. The initial and final paw volume of each rat was measured at regular interval of time (1, 2, 3, 4, 5 and 6 hours) after injection, using a digital Plethysmometer (Ugo Basile, Italy). The percent inhibition of edema produced by the diclofenac- and zinc(II) complex-treated groups was determined with respect to the control group, using the standard formula used with this type of test, as known in the industry and reported in the literature. The inhibition of inflammation was analyzed statistically by applying a student t-test, using the MS Excel 2010 spreadsheet program. A P value <0.05 was considered statistically significant.
Molecule,time up to which the anti-inflammatory effect increased,"percent inhibition of inflammation (paw edema) vs control group (4 mg/kg oral, 5 hours past oral administration) [%]",anti-inflammatory effect in vivo (in words) (10 mg/kg oral),"anti-inflammatory effect in vivo (in words) (10 mg/kg oral, listed as zinc complex)","percent inhibition of inflammation (paw edema) vs control group (10 mg/kg oral, 6 hours post oral administration) [%]"
"O=C(O)Cc1ccccc1Nc1c(Cl)cccc1Cl [diclofenac, reference compound]",about 5 hours,82.31,,,
"bis(chloro)-(N,N′-(2,2-dimethylpropane-1,3-diyl)bis(1-(2-chlorophenyl)methanimine))-zinc(II) complex [Zn(II) complex]",about 6 hours,,good anti-inflammatory effect,good degree of anti-inflammatory activity,56.39
